melting point [°C] | Compound
158 to 161 | Oc1ccc2c(c1)OC(c1ccc(OCCN3CCCCC3)cc1)c1c-2ccc2cc(O)ccc12 (stereo unspecified)
> 250 | CCc1cccc2c1[nH]c1c2ccc2c(C=O)c[nH]c21
280 to 285 | O=c1c2c[nH]cc(-c3ccccc3)c-2nn1-c1ccccc1
156 to 158 | CC(Oc1ccc(COc2ccc(Cl)cc2)cc1)C(=O)O (stereo unspecified)
169 to 170 | Oc1ccc(-c2noc(C3(C(O)(C4CC4)C4CC4)CC3)c2-c2ccccc2)cc1
87 to 89 | Cc1cccc2ncn(C(C)C(O)(Cn3cncn3)c3ccc(F)cc3F)c(=O)c12 (stereo unspecified)
138 | CC(=O)NCC1CNC(=O)O1 (stereo unspecified)
137 to 139 | O=C(Nc1ccc(C2(O)CCCN(C(=O)OCc3ccccc3)C2)c(F)c1)OCc1ccccc1 (stereo unspecified)
187 to 190 | CC(=O)N1CCN(C(=S)Nc2cc3sc(C(C)(C)C)nc3cc2N2CCC(C)CC2)CC1
193 | CN(C)C=NS(=O)(=O)c1ccccc1-c1ccc(Cn2c(-c3ccccc3)nc(Cl)c2C=O)cc1
120 to 122 | CC(=O)NC(CSC(=O)c1ccccc1OC(C)=O)C(=O)O (stereo unspecified)
243 to 247 | COc1cc2c(cc1Cl)C(c1ccccc1Cl)C(=O)N2 (stereo unspecified)
186 to 190 | N=C(NC(=O)NCCCCCCNC(=O)NC(=N)Nc1ccc(Cl)cc1)Nc1ccc(Cl)cc1
148 to 149 | Cc1nsc(OCC(F)(F)F)c1S(N)(=O)=O
260 to 262 | Nc1nc2ccccc2c2c1ncn2CCO
55 to 58 | COc1ccc(Cc2ccc(CO)nc2)cc1
114 to 116 | CC(C(=O)O)c1ccc(-c2ccc(Br)cc2Br)cc1 (stereo unspecified)
174 to 176 | Cc1cccc(C)c1N=CNc1c(C)cccc1C
205 to 207 | CCOC(=O)c1cc(-c2csc(N)n2)[nH]n1
109 to 110 | CCn1ncc2c3c(NCc4ccc(OC)c(Cl)c4)nnc(N4CCC(O)CC4)c3cnc21
54 to 55 | CCOc1ccc(/C=C/c2cc(OC)cc(OC)c2)cc1
210 to 216 | Cn1ccc(=O)c(OCc2ccccc2)c1C(=O)c1cccnc1

The remaining lines, values behind:

Compound | melting point [°C]
COC1(c2nc3c(F)cccc3s2)C=CC(=NS(=O)(=O)c2ccc(C)cc2)C=C1 (stereo unspecified) | 176
CC(=O)OCCN(C(=O)Cn1c(=O)n(C)c2nc(-c3ccccc3)ncc21)c1ccccc1 | 158 to 160
Fc1cccc(F)c1C1=N[C@@H](c2ccc(-c3ccc(S)cc3)cc2)CO1 | 133 to 135
O=S(=O)(c1ccc(Cl)cc1)C(c1cc(F)ccc1F)C1CCCCC1 (stereo unspecified) | 107 to 109
COC(=O)c1ccc(N)c(NC(=O)c2ccc(C(C)(C)C)cc2)c1 | 175
CC(=O)C1CCCNC1=O (stereo unspecified) | 101 to 103
O=C(O)C1=Cc2cc(Cl)cc(Cl)c2SC1C(F)(F)F (stereo unspecified) | 218 to 220
NC(C=CP(=O)(O)O)(CO)CCc1ccc(Sc2cccc(OCc3ccccc3)c2)cc1Cl (stereo unspecified) | 245 to 248
COC(=O)C(C(=O)OC)c1ccc(Br)cc1[N+](=O)[O-] | 86 to 88
COCCNc1c([N+](=O)[O-])cnn1-c1c(Cl)cc(C(F)(F)F)cc1Cl | 85 to 90
O=C(Nc1n[nH]c2cc(Cl)ccc12)c1ccccc1 | 188
O=c1ncc(Cl)cn1Cn1cc(Cl)cnc1=O | 260
CCOC(=O)c1c(-c2cc(C(C)(C)C)c(O)c(C(C)(C)C)c2)c2cc3c(cc2oc1=O)CCC3 | 208 to 209
CN(C)C(=O)C(=O)N1CN(C(=O)c2c(F)cccc2F)C(=O)N(c2ccc(Oc3ccc(C(F)(F)F)cc3Cl)cc2F)C1 | 98 to 100
COC(=O)N[C@@H](Cc1ccccc1)[C@H](O)CCl | 163 to 164
CC(C)c1ccc(S(=O)(=O)n2c(Cc3cccc(C(=O)O)c3)cc3cc(Cl)ccc32)cc1 | 170
CCN1OCC(=Cc2cc(C(C)(C)C)c(O)c(C(C)(C)C)c2)C1=O | 189 to 191
COc1ccc2c(Cc3c(Cl)cncc3Cl)nnc(Nc3nccs3)c2c1 | 218 to 220
O=C1CCCCN1[C@@H]1c2cc(C(F)(F)F)ccc2OC(CF)(CF)[C@H]1O (relative stereo) | 184 to 187
O=C(Nc1cccc(-c2ccnc3c(C(=O)c4ccco4)cnn23)c1)c1ccccc1 | 220 to 222
COc1ccc(N2CCN(c3ccc(C)cc3)CC2)c(-c2ccc(N(C)C)cc2)n1 | 170 to 173
NC(=O)CNC(=O)c1cccc(-c2ccc(Cl)c3cc(Cc4ccc(F)c(F)c4)sc23)c1 | 188 to 189
C=CCNc1nc(NCC=C)c2scc(CC)c2n1 | 55
COC(=O)c1cccc(C)c1S(=O)(=O)Cl | 114 to 116
O=C(Nc1ccc(-n2nc(C(F)(F)F)cc2C(F)(F)F)cc1F)c1ccc(F)cc1F | 66 to 67

Compound | melting point [°C]
CC(=O)Nc1nc2c(s1)-c1c(cnn1C(N)=O)CC2 | 265 to 270
COC(=O)c1ccc(OC)cc1S(N)(=O)=O | 135 to 139
N#CC(=NO)c1ccc(Cl)cc1Cl | 151
O=C(O)Cn1cc(C(=O)c2ccn3c2CSC3c2cccnc2)c2ccc(-c3ccc(F)cc3)cc21 (stereo unspecified) | 240 to 249
C#CCN(Cc1ccc2nc(C)[nH]c(=O)c2c1)c1ccc(C(=O)NCc2cccc([N+](=O)[O-])c2)c(N)c1 | 86 to 92
CCOC(=O)c1noc([C@@H](Cc2ccc3ccccc3c2)N(C)C(=O)OC(C)(C)C)n1 | 99 to 102
COC(=O)CC(O)CP(=O)(C#Cc1c(C(C)C)c2n(c1-c1ccc(F)cc1)CCCC2)OC (stereo unspecified) | 100 to 101
CCOC(=O)c1cc2ccccc2nn1 | 158 to 160
Cn1nc2nnsc2c1C#N | 111 to 114
CCOC(=O)Cc1ccc(-n2cccn2)cc1 | 49
O=CN(O)C(CCc1ncc(F)cn1)CS(=O)(=O)N1CCN(c2ccc(Cl)cn2)CC1 (stereo unspecified) | 154 to 155
O=C1c2ccccc2C(=O)N1CCn1ccnc1 | 151 to 153
CN(C)c1ccc2nc(-c3csc4ccccc34)[nH]c(=O)c2c1 | > 300
Nc1nc(CN2C(=O)C3(COc4cc5c(cc43)OCO5)c3ccccc32)cs1 (stereo unspecified) | 230 to 235
N#Cc1cnn(-c2c(Cl)cc(C(F)(F)F)cc2Cl)c1N1CCC1=O | 162 to 164
Cc1ccc(S(=O)(=O)n2cc(C(C)O)c3ccc(C(=O)Nc4c(Cl)cncc4Cl)cc32)cc1 (stereo unspecified) | 206 to 211
COC(=O)N[C@H]1Cc2ccccc2C1=O | 157 to 159
CC(c1cc(Cl)ccc1N1CCCC1)C(C(N)=O)c1ccc(C(=O)O)cc1 (stereo unspecified) | 202 to 204
Cc1c(-c2ccccc2)[nH]c(=O)n1C1CCN(CCc2ccccc2)CC1 | 153 to 155
O=C(/C=C/c1c[nH]c2ccccc12)c1ccccn1 | 141 to 145
CC1(C)CCC(C)(C)c2cc(-c3cc(-c4ccc(C(=O)O)cc4)ccc3OCCCCCCCO)ccc21 | 168 to 172
COc1cc(C(C)C)c2c(c1)S(=O)(=O)N(COC(=O)c1cc(C)no1)C2=O | 157 to 158
COc1ccc(-n2nc(C(=O)NC(C)(C)C)c3c2C2CCC3C2)cc1 (stereo unspecified) | 145 to 147
O=C(O)[C@@H]1CCCN1C(=O)C(CS)CS | 138 to 140

From a melting point compilation (Tetko et al.; mined from patent text by program, amines drawn as free bases though some values may be those of a salt)
